Experimental data: PubChem BioAssay AID1259407 (Chemical Carcinogenesis Research Information System (CCRIS), 2018)
The source made the active and inactive calls. No rule for the calls is given here.

Test system: CCRIS mutagenicity, Ames/micronucleus/aberration tests
Assay: CCRIS mutagenicity studies
[1] = Test System: AMES SALMONELLA TYPHIMURIUM, Strain/Indicator: TA98, Metabolic Activation: NONE, Method: STANDARD PLATE
[2] = Test System: AMES SALMONELLA TYPHIMURIUM, Strain/Indicator: TA100, Metabolic Activation: NONE, Method: STANDARD PLATE
[3] = Test System: AMES SALMONELLA TYPHIMURIUM, Strain/Indicator: TA100, Metabolic Activation: RAT, LIVER, S-9, AROCLOR 1254, Method: PREINCUBATION

CNC(=O)Oc1ccccc1OC(C)C
mutagenic call (Test System: AMES SALMONELLA TYPHIMURIUM, Strain/Indicator: TA98, Metabolic Activation: HAMSTER, LIVER, S-9, AROCLOR 1254, Method: STANDARD PLATE): inactive; negative | mutagenic call [1]: inactive; negative | mutagenic call (Test System: AMES SALMONELLA TYPHIMURIUM, Strain/Indicator: TA98, Metabolic Activation: RAT, LIVER, S-9, AROCLOR 1254, Method: STANDARD PLATE): inactive; negative | mutagenic call (Test System: AMES SALMONELLA TYPHIMURIUM, Strain/Indicator: TA100, Metabolic Activation: HAMSTER, LIVER, S-9, AROCLOR 1254, Method: STANDARD PLATE): inactive; negative | mutagenic call [2]: inactive; negative | mutagenic call (Test System: AMES SALMONELLA TYPHIMURIUM, Strain/Indicator: TA100, Metabolic Activation: RAT, LIVER, S-9, AROCLOR 1254, Method: STANDARD PLATE): inactive; negative | mutagenic call (Test System: AMES SALMONELLA TYPHIMURIUM, Strain/Indicator: TA1535, Metabolic Activation: NONE, Method: STANDARD PLATE): active; positive | mutagenic call (Test System: AMES SALMONELLA TYPHIMURIUM, Strain/Indicator: TA1537, Metabolic Activation: NONE, Method: STANDARD PLATE): inactive; negative | mutagenic call (Test System: AMES SALMONELLA TYPHIMURIUM, Strain/Indicator: TA1537, Metabolic Activation: RAT, LIVER, S-9, AROCLOR 1254, Method: STANDARD PLATE): inactive; negative | mutagenic call (Test System: AMES SALMONELLA TYPHIMURIUM, Strain/Indicator: TA1538, Metabolic Activation: HAMSTER, LIVER, S-9, AROCLOR 1254, Method: STANDARD PLATE): inactive; negative | mutagenic call (Test System: AMES SALMONELLA TYPHIMURIUM, Strain/Indicator: TA1538, Metabolic Activation: NONE, Method: STANDARD PLATE): inactive; negative | mutagenic call (Test System: AMES SALMONELLA TYPHIMURIUM, Strain/Indicator: TA1538, Metabolic Activation: RAT, LIVER, S-9, AROCLOR 1254, Method: STANDARD PLATE): inactive; negative | mutagenic call (Test System: CHINESE HAMSTER V-79, Strain/Indicator: V-79(HPRT)/6-THIOGUANINE, Metabolic Activation: NONE): inactive; negative | mutagenic call (Test System: MOUSE LYMPHOMA, Strain/Indicator: L5178Y (TK+/TK-), Metabolic Activation: NONE, Method: SUSPENSION/PLATE): active; positive. reevaluation of results: positive | mutagenic call (Test System: MOUSE LYMPHOMA, Strain/Indicator: L5178Y (TK+/TK-), Metabolic Activation: RAT, LIVER, S-9, AROCLOR 1254, Method: SUSPENSION/PLATE): active; positive. reevaluation of results: positive

O=Cc1ccc([N+](=O)[O-])o1
mutagenic call (Test System: AMES SALMONELLA TYPHIMURIUM, Strain/Indicator: TA98(1,8-DNP6), Metabolic Activation: NONE, Method: STANDARD PLATE): active; positive | mutagenic call (Test System: AMES SALMONELLA TYPHIMURIUM, Strain/Indicator: TA98(1,8-DNP6), Metabolic Activation: RAT, LIVER, S-9, 3-METHYLCHOLANTHRENE, Method: STANDARD PLATE): active; positive | mutagenic call (Test System: AMES SALMONELLA TYPHIMURIUM, Strain/Indicator: TA98(NR), Metabolic Activation: NONE, Method: STANDARD PLATE): active; positive | mutagenic call (Test System: AMES SALMONELLA TYPHIMURIUM, Strain/Indicator: TA98(NR), Metabolic Activation: RAT, LIVER, S-9, 3-METHYLCHOLANTHRENE, Method: STANDARD PLATE): active; positive | mutagenic call [1]: active; positive | mutagenic call (Test System: AMES SALMONELLA TYPHIMURIUM, Strain/Indicator: TA98, Metabolic Activation: RAT, LIVER, S-9, 3-METHYLCHOLANTHRENE, Method: STANDARD PLATE): active; positive | mutagenic call (Test System: AMES SALMONELLA TYPHIMURIUM, Strain/Indicator: TA100(1,8-DNP6), Metabolic Activation: NONE, Method: PREINCUBATION): active; positive | mutagenic call (Test System: AMES SALMONELLA TYPHIMURIUM, Strain/Indicator: TA100(1,8-DNP6), Metabolic Activation: RAT, LIVER, S-9, AROCLOR 1254, Method: PREINCUBATION): active; positive | mutagenic call (Test System: AMES SALMONELLA TYPHIMURIUM, Strain/Indicator: TA100(NR), Metabolic Activation: NONE, Method: PREINCUBATION): active; positive | mutagenic call (Test System: AMES SALMONELLA TYPHIMURIUM, Strain/Indicator: TA100(NR), Metabolic Activation: RAT, LIVER, S-9, AROCLOR 1254, Method: PREINCUBATION): active; positive | mutagenic call (Test System: AMES SALMONELLA TYPHIMURIUM, Strain/Indicator: TA100, Metabolic Activation: NONE, Method: PREINCUBATION): active; positive | mutagenic call [3]: active; positive

CCOC(=O)Nc1cccc2c1[nH]c1ccncc12
mutagenic call (Test System: AMES SALMONELLA TYPHIMURIUM, Strain/Indicator: TA1537, Metabolic Activation: NONE, Method: PREINCUBATION): inactive; negative | mutagenic call (Test System: AMES SALMONELLA TYPHIMURIUM, Strain/Indicator: TA1537, Metabolic Activation: RAT, LIVER, S-9, PHENOBARBITAL, Method: PREINCUBATION): inactive; negative

Cn1nnc2c(C(N)=O)ncn2c1=O
mutagenic call (End Point: IN VITRO CHROMOSOMAL ABERRATIONS, Test System: HUMAN HCT116/3-6 CELLS, Metabolic Activation: NONE): active; positive | mutagenic call (End Point: IN VITRO CHROMOSOMAL ABERRATIONS, Test System: HUMAN HCT116 CELLS, Metabolic Activation: NONE): active; positive | mutagenic call (End Point: IN VITRO CHROMOSOMAL ABERRATIONS, Test System: HUMAN MT1 CELLS, Metabolic Activation: NONE): active; positive | mutagenic call (End Point: IN VITRO CHROMOSOMAL ABERRATIONS, Test System: HUMAN TK6 CELLS, Metabolic Activation: NONE): active; positive

c1ccc(-c2ccncc2)nc1
mutagenic call (Test System: AMES SALMONELLA TYPHIMURIUM, Strain/Indicator: TA97, Metabolic Activation: RAT, LIVER, S-9, PHENOBARBITAL, Method: STANDARD PLATE): inactive; negative | mutagenic call (Test System: AMES SALMONELLA TYPHIMURIUM, Strain/Indicator: TA98, Metabolic Activation: RAT, LIVER, S-9, PHENOBARBITAL, Method: STANDARD PLATE): active; positive | mutagenic call (Test System: AMES SALMONELLA TYPHIMURIUM, Strain/Indicator: TA100, Metabolic Activation: RAT, LIVER, S-9, PHENOBARBITAL, Method: STANDARD PLATE): inactive; negative | mutagenic call (Test System: AMES SALMONELLA TYPHIMURIUM, Strain/Indicator: TA1535, Metabolic Activation: RAT, LIVER, S-9, PHENOBARBITAL, Method: STANDARD PLATE): inactive; negative | mutagenic call (Test System: AMES SALMONELLA TYPHIMURIUM, Strain/Indicator: TA1537, Metabolic Activation: RAT, LIVER, S-9, PHENOBARBITAL, Method: STANDARD PLATE): active; positive | mutagenic call (Test System: AMES SALMONELLA TYPHIMURIUM, Strain/Indicator: TA1538, Metabolic Activation: RAT, LIVER, S-9, PHENOBARBITAL, Method: STANDARD PLATE): inactive; negative

COc1ccc(/C=C/c2cc(OC)cc(=O)o2)cc1
mutagenic call (Test System: Mouse lymphoma cells, Strain/Indicator: L5178Y ( tk+/tk-), Metabolic Activation: Human, Liver, S-9, Method: Suspension/plate): inactive; negative

Cc1cc2ccccc2c2cc3c(cc12)[C@H](O)[C@@H](O)C=C3
mutagenic call [3]: active; positive

CC(=O)OCCO
mutagenic call [1]: inactive; negative | mutagenic call (Test System: AMES SALMONELLA TYPHIMURIUM, Strain/Indicator: TA98, Metabolic Activation: RAT, LIVER, MICROSOMES, Method: STANDARD PLATE): inactive; negative | mutagenic call [2]: inactive; negative | mutagenic call (Test System: AMES SALMONELLA TYPHIMURIUM, Strain/Indicator: TA100, Metabolic Activation: RAT, LIVER, MICROSOMES, Method: STANDARD PLATE): inactive; negative
